These results are taken from EP1086695B1, “Antiviral compositions comprising yohimbine as active principle” (Leone, Enzo, priority 1999, dated 2001).

Series [1] has as its system herpes progenitalis. In words: Example 4: treatment of herpes progenitalis in a serious form (single case). The format is in vivo, person. The protocol: The patient took 5 mg/day of yohimbine HCI for more than one year with three-week rest intervals every three months, using a galenical preparation consisting of: […]
Series [2] relates to herpetic keratoconjunctivitis. In words: Example 2: clinical treatment of herpetic keratitis. The series is classed as in vivo, subjects. The text has this: These re-occurrences of acute episodes were, however, mastered with three-week cycles of treatment using the drug in question, with three-week rest intervals between one cycle and another.
Series [3] has as its system herpes virus 1 or 2. In words: Example 1: clinical treatment of herpes. Particulars: 5 mg/day; 30 patients. The format is in vivo. On the procedure:
In the course of 7 years, 30 patients suffering from herpes virus 1 or 2 were treated, the said patients still being currently under supervision.
The treatment involved the use of 5 mg/day of yohimbine HCI until resolution of the dermatological affections.

Series [4] relates to influenza. The series is described as follows: Example 3: clinical treatment of influenza syndromes. The format is in vivo. Particulars: 5 mg/day, 7-10 day treatment; including elderly patients and children.
The subject of series [5] is HSV-1. Particulars: against HSV-1 in their screening system; cited from earlier work.
Series [6] can be described thus: Doses effective as antiviral agent (general finding). Particulars: expressed as free base. The format is in vivo. The protocol:
The preferred dosage is 5 mg/day from the onset of the first signs of the viral infection up to its cure. In the case of long courses of treatment, it is preferable to follow a scheme of two- or three-month cycles with intervals of rest of 10-15 days. Higher doses than the range indicated may result in a failure of the curative effect, this being due to the peculiarity of yohimbine, observed on various organs and apparatus, namely of stimulating an action (for example, splenocontraction) at a certain dose level, and the opposite action (splenodilation) at higher dose levels. Doses below the limit indicated may be therapeutically ineffective.

Where a name gives a salt, the structure may show the parent alone.

As for `COC(=O)[C@@H]1[C@H]2C[C@H]3c4[nH]c5ccccc5c4CCN3C[C@@H]2CC[C@@H]1O` [yohimbine HCI, yohimbine hydrochloride], the side effect entry in series [1] (5 mg/day for more than one year) is “did not reveal any side effect”. The “lesions and vesicular eruptions” value in series [1] (5 mg/day tablet, three-week rest intervals every three months) is “within approximately six months led to the disappearance of the lesions and of the vesicular eruptions”. Moreover, the recurrence entry in series [1] (follow-up after treatment) is given as “Only one other slight episode of recurrence occurred five years later”. The relapse entry is “the cases of relapse were less frequent and of shorter duration” in series [2] (5 mg/day, 10 subjects); “considerable reduction in the number of cases of relapse” in series [3]. Besides, the pain result in series [2] (5 mg/day, in periods when the affection became more acute) was “the pain involved became more tolerable”. Also, the tolerability of treatment entry in series [2] (treatment lasting several years, three-week cycles) is “without any problems of any sort arising”. For the same compound, in series [4], the outcome of influenza was “complete resolution”. Also, the antiherpes activity entry in series [5] was “inactive”.
Regarding `COC(=O)[C@@H]1[C@H]2C[C@H]3c4[nH]c5ccccc5c4CCN3C[C@@H]2CC[C@@H]1O` [yohimbine, methyl 17-alpha-hydroxy-20-alpha-yohimban-16-beta-carboxylate], the “doses at which yohimbine is effective as antiviral agent” value in series [6] was 3 to 10 mg/day.
Regarding `Nc1nc2c(ncn2COCCO)c(=O)[nH]1` [acyclovir], the “outcome of earlier treatment” value in series [1] (earlier treatment with specific drugs) is “unsuccessfully”. Further, the “benefit in terms of recidivation” value in series [2] (earlier classic treatment of the same 10 subjects) is on record as “without any benefit”.
